Experimental data: PubChem BioAssay AID2060905 (Molecular Pharmacology Branch, DTP, NCI, 2025)
pIC50: −log10 of the molar value. Values belong to the compound of their own block, whether it stands above or below them.

Test system: 282377-053-R-J1-PDC complex spheroid viability
Assay: Anticancer human tumor 282377-053-R-J1-PDC patient-derived colon adenocarcinoma cell line growth inhibition [RAS]
Details: for pIC50: curve of first compound; for viability, T/C: stronger effect = lower value
In short: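 Multi-cell-type spheroids: tumor cells plus HUVEC endothelial cells and mesenchymal stem cells. RAS-pathway inhibitors were combined with targeted agents, each dosed in half-log steps down from clinical Cmax, or from 10 microM when Cmax was unknown.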

[1] = second compound 0.000949 µM, first compound 0.0316 µM
[2] = second compound 0.000949 µM, first compound 0.1 µM
[3] = second compound 0.000949 µM, first compound 0.316 µM
[4] = second compound 0.000949 µM, first compound 1 µM
[5] = second compound 0.003 µM, first compound 0.0316 µM
[6] = second compound 0.003 µM, first compound 0.1 µM
[7] = second compound 0.003 µM, first compound 0.316 µM
[8] = second compound 0.003 µM, first compound 1 µM
[9] = second compound 0.00949 µM, first compound 0.0316 µM
[10] = second compound 0.00949 µM, first compound 0.1 µM
[11] = second compound 0.00949 µM, first compound 0.316 µM
[12] = second compound 0.00949 µM, first compound 1 µM
[13] = second compound 0.03 µM, first compound 0.0316 µM
[14] = second compound 0.03 µM, first compound 0.1 µM
[15] = second compound 0.03 µM, first compound 0.316 µM
[16] = second compound 0.03 µM, first compound 1 µM
[17] = second compound 0.0949 µM, first compound 0.0316 µM
[18] = second compound 0.0949 µM, first compound 0.1 µM
[19] = second compound 0.0949 µM, first compound 0.316 µM
[20] = second compound 0.0949 µM, first compound 1 µM
[21] = second compound 0.3 µM, first compound 0.0316 µM
[22] = second compound 0.3 µM, first compound 0.1 µM
[23] = second compound 0.3 µM, first compound 0.316 µM
[24] = second compound 0.3 µM, first compound 1 µM
[25] = second compound 0.000949 µM, first compound 3.16 µM
[26] = second compound 0.000949 µM, first compound 10 µM
[27] = second compound 0.003 µM, first compound 3.16 µM
[28] = second compound 0.003 µM, first compound 10 µM
[29] = second compound 0.00949 µM, first compound 3.16 µM
[30] = second compound 0.00949 µM, first compound 10 µM
[31] = second compound 0.03 µM, first compound 3.16 µM
[32] = second compound 0.03 µM, first compound 10 µM
[33] = second compound 0.0949 µM, first compound 3.16 µM
[34] = second compound 0.0949 µM, first compound 10 µM
[35] = second compound 0.3 µM, first compound 3.16 µM
[36] = second compound 0.3 µM, first compound 10 µM
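Further: spheroids exposed to agents for seven days before readout.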
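Wherever viability, T/C is given: luminescence viability as percent of DMSO vehicle control wells.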

pIC50 (second compound 0.000949 µM): < 6.00
pIC50 (second compound 0.003 µM): < 6.00
pIC50 (second compound 0.00949 µM): < 6.00
pIC50 (second compound 0.03 µM): < 6.00
pIC50 (second compound 0.0949 µM): < 6.00
pIC50 (second compound 0.3 µM): < 6.00
SMILES: CCN1CCN(Cc2ccc(Nc3ncc(F)c(-c4cc(F)c5nc(C)n(C(C)C)c5c4)n3)nc2)CC1 + CCn1c(-c2cccnc2C(C)OC)c2c3cc(ccc31)N1CCOC(CC(NC(=O)C(C(C)C)N(C)C(=O)C3(F)CCN(C(=O)C#CC(C)(C)N(C)C)CC3)C(=O)N3CCCC(N3)C(=O)OCC(C)(C)C2)C1
viability, T/C (second compound 0.000949 µM, first compound 0.00316 µM): 117%
viability, T/C (second compound 0.000949 µM, first compound 0.01 µM): 100%
viability, T/C [1]: 104%
viability, T/C [2]: 97.3%
viability, T/C [3]: 137%
viability, T/C [4]: 229%
viability, T/C (second compound 0.003 µM, first compound 0.00316 µM): 137%
viability, T/C (second compound 0.003 µM, first compound 0.01 µM): 113%
viability, T/C [5]: 94.6%
viability, T/C [6]: 99%
viability, T/C [7]: 144%
viability, T/C [8]: 204%
viability, T/C (second compound 0.00949 µM, first compound 0.00316 µM): 111%
viability, T/C (second compound 0.00949 µM, first compound 0.01 µM): 106%
viability, T/C [9]: 122%
viability, T/C [10]: 90.4%
viability, T/C [11]: 156%
viability, T/C [12]: 208%
viability, T/C (second compound 0.03 µM, first compound 0.00316 µM): 104%
viability, T/C (second compound 0.03 µM, first compound 0.01 µM): 99.5%
viability, T/C [13]: 113%
viability, T/C [14]: 110%
viability, T/C [15]: 134%
viability, T/C [16]: 238%
viability, T/C (second compound 0.0949 µM, first compound 0.00316 µM): 102%
viability, T/C (second compound 0.0949 µM, first compound 0.01 µM): 109%
viability, T/C [17]: 120%
viability, T/C [18]: 116%
viability, T/C [19]: 125%
viability, T/C [20]: 250%
viability, T/C (second compound 0.3 µM, first compound 0.00316 µM): 93%
viability, T/C (second compound 0.3 µM, first compound 0.01 µM): 106%
viability, T/C [21]: 87.2%
viability, T/C [22]: 124%
viability, T/C [23]: 160%
viability, T/C [24]: 221%

pIC50 (second compound 0.000949 µM): < 5.00
pIC50 (second compound 0.003 µM): < 5.00
pIC50 (second compound 0.00949 µM): < 5.00
pIC50 (second compound 0.03 µM): < 5.00
pIC50 (second compound 0.0949 µM): < 5.00
pIC50 (second compound 0.3 µM): < 5.00
SMILES: C[C@@H](NC(=O)c1ncnc(N)c1Cl)c1ncc(C(=O)Nc2cc(C(F)(F)F)c(Cl)cn2)s1 + CCn1c(-c2cccnc2C(C)OC)c2c3cc(ccc31)N1CCOC(CC(NC(=O)C(C(C)C)N(C)C(=O)C3(F)CCN(C(=O)C#CC(C)(C)N(C)C)CC3)C(=O)N3CCCC(N3)C(=O)OCC(C)(C)C2)C1
viability, T/C [1]: 111%
viability, T/C [2]: 118%
viability, T/C [3]: 119%
viability, T/C [4]: 90.6%
viability, T/C [25]: 80.8%
viability, T/C [26]: 64.5%
viability, T/C [5]: 112%
viability, T/C [6]: 92.7%
viability, T/C [7]: 99.8%
viability, T/C [8]: 82.1%
viability, T/C [27]: 63.6%
viability, T/C [28]: 57.3%
viability, T/C [9]: 93.7%
viability, T/C [10]: 89%
viability, T/C [11]: 78.5%
viability, T/C [12]: 109%
viability, T/C [29]: 70.1%
viability, T/C [30]: 58.9%
viability, T/C [13]: 92.8%
viability, T/C [14]: 117%
viability, T/C [15]: 91%
viability, T/C [16]: 84.3%
viability, T/C [31]: 75.8%
viability, T/C [32]: 81.1%
viability, T/C [17]: 83.2%
viability, T/C [18]: 93.6%
viability, T/C [19]: 76.5%
viability, T/C [20]: 73.1%
viability, T/C [33]: 71.8%
viability, T/C [34]: 71.3%
viability, T/C [21]: 80.7%
viability, T/C [22]: 99.1%
viability, T/C [23]: 96.8%
viability, T/C [24]: 86.2%
viability, T/C [35]: 81.4%
viability, T/C [36]: 66.9%

pIC50 (second compound 0.000949 µM): < 5.00
pIC50 (second compound 0.003 µM): < 5.00
pIC50 (second compound 0.00949 µM): < 5.00
pIC50 (second compound 0.03 µM): < 5.00
pIC50 (second compound 0.0949 µM): < 5.00
pIC50 (second compound 0.3 µM): < 5.00
SMILES: Cc1nc(N2CCC3(CC2)COC(C)C3N)c(CO)nc1Sc1ccnc(N)c1Cl (stereo unspecified) + CCn1c(-c2cccnc2C(C)OC)c2c3cc(ccc31)N1CCOC(CC(NC(=O)C(C(C)C)N(C)C(=O)C3(F)CCN(C(=O)C#CC(C)(C)N(C)C)CC3)C(=O)N3CCCC(N3)C(=O)OCC(C)(C)C2)C1
viability, T/C [1]: 81%
viability, T/C [2]: 93.8%
viability, T/C [3]: 89.8%
viability, T/C [4]: 94.2%
viability, T/C [25]: 81.8%
viability, T/C [26]: 80.6%
viability, T/C [5]: 85.8%
viability, T/C [6]: 115%
viability, T/C [7]: 101%
viability, T/C [8]: 85.8%
viability, T/C [27]: 82.1%
viability, T/C [28]: 75.1%
viability, T/C [9]: 111%
viability, T/C [10]: 85.1%
viability, T/C [11]: 89.2%
viability, T/C [12]: 99.7%
viability, T/C [29]: 99.5%
viability, T/C [30]: 110%
viability, T/C [13]: 101%
viability, T/C [14]: 83.8%
viability, T/C [15]: 102%
viability, T/C [16]: 87%
viability, T/C [31]: 84.4%
viability, T/C [32]: 83.4%
viability, T/C [17]: 88.9%
viability, T/C [18]: 96.2%
viability, T/C [19]: 108%
viability, T/C [20]: 103%
viability, T/C [33]: 95.5%
viability, T/C [34]: 105%
viability, T/C [21]: 87.6%
viability, T/C [22]: 103%
viability, T/C [23]: 93%
viability, T/C [24]: 100%
viability, T/C [35]: 90%
viability, T/C [36]: 119%
